Assay results published in patent US7304174B2, “CaSR antagonist” (Japan Tobacco Inc., priority 2003, dated 2007).

Experiments:
PTH secretion [1] = test: PTH secretion action, Experimental Example 2 (serum PTH after oral administration); format: in vivo, male SD rats; conditions: test compound administration group, 1 mg/5 ml/kg oral, rats fasted 20 hr
Protocol: The test compound was orally administered to 5 to 9-week-old male SD rats (Charles River Japan, Inc.) fasted for 20 hr, using a solvent (0.5% methyl cellulose solution) at a dose of 1 mg/5 ml/kg. A solvent alone was orally administered to the control group at a dose of 5 ml/kg. The blood was drawn from the tail vein immediately before and, 15 min, 30 min, 60 min and 120 min after the administration of the test compound, and serum was obtained. The serum PTH concentration was measured using rat PTH ELISA kit (Amersham Biosciences).

bone resorption = test: Concomitant administration of test compound and estrogen: bone resorption marker blood ICTP; format: in vivo, ovariectomized rats; conditions: for Blood ICTP concentration: mean ± S.D., n = 5
Protocol: The 13-week-old ovariectomized rats were divided into 4 groups of a control group (Group A), an estrogen administration group (Group B), a test compound administration group (Group C), and a test compound and estrogen concomitant administration group (Group D). One sham control group (E group) subjected to a sham surgery was also established. Estradiol was dissolved in 5% benzyl alcohol-corn oil and subcutaneously administered to an estrogen administration groups (Group B and Group D) at the dose of 10 μg/kg. 5% Benzyl alcohol-corn oil was subcutaneously administered to groups (Group A and Group C) free from administration of estrogen. The compound of Example 1-1 was suspended in 0.5% methyl cellulose solution and orally administered to groups (Group C and Group D) to be administered with the test compound at the dose of 3 mg/kg. As regards the groups (Group A and Group B) free from administration of the test compound, 0.5% methyl cellulose solution was orally administered. On day 13 from the start of the administration, the blood was drawn in each group from the tail vein, and serum was obtained. ICTP, which is a blood bone resorption marker, was measured using a commercially available ELISA kit (“RatLaps ELISA kit”, Nordic Bioscience Diagnostics).

PTH secretion [2] = test: Concomitant administration of test compound and estrogen: blood PTH with time; format: in vivo, ovariectomized rats; conditions: for PTH (1–84) concentration 0.25 hr: day 16, 0.25 hr; for PTH (1–84) concentration 0.5 hr: day 16, 0.5 hr; for PTH (1–84) concentration 1 hr: day 16, 1 hr; for PTH (1–84) concentration 2 hr: day 16, 2 hr; for PTH (1–84) concentration 4 hr: day 16, 4 hr; for PTH (1–84) concentration 0 hr: day 16, immediately before oral administration
Protocol: The 13-week-old ovariectomized rats were divided into 4 groups of a control group (Group A), an estrogen administration group (Group B), a test compound administration group (Group C), and a test compound and estrogen concomitant administration group (Group D). One sham control group (E group) subjected to a sham surgery was also established. Estradiol was dissolved in 5% benzyl alcohol-corn oil and subcutaneously administered to an estrogen administration groups (Group B and Group D) at the dose of 10 μg/kg. 5% Benzyl alcohol-corn oil was subcutaneously administered to groups (Group A and Group C) free from administration of estrogen. The compound of Example 1-1 was suspended in 0.5% methyl cellulose solution and orally administered to groups (Group C and Group D) to be administered with the test compound at the dose of 3 mg/kg. As regards the groups (Group A and Group B) free from administration of the test compound, 0.5% methyl cellulose solution was orally administered.
In addition, blood was drawn with time for the measurement of blood PTH at day 16 of administration. The blood was drawn in each group from the tail vein immediately before oral administration and 0.25, 0.5, 1, 2 and 4 hr later, and serum was obtained. For serum PTH measurement, a commercially available ELISA kit (“rat intact PTH ELISA kit”, Immutopics) was used.

[3] = Group D concomitant with estradiol
[4] = exclusive administration (Group B estradiol; Group C Example 1-1 3 mg/kg oral)

Cc1ccc(CC(C)(C)NC[C@@H](O)CO[C@H](C)c2ccccc2-c2ccc(C(=O)O)c(C)c2)cc1F [Example 1-1, 2′-[(1R)-[(2R)-3-[[1-(3-Fluoro-4-methylphenyl)-2-methylpropan-2-yl]amino]-2-hydroxypropoxy]ethyl]-3-methylbiphenyl-4-carboxylic acid]
Serum PTH concentration 15 min later (PTH secretion [1]; 15 min): 43.9 ± 2.0 pg/mL
Serum PTH concentration 30 min later (PTH secretion [1]; 30 min): 25.0 ± 3.2 pg/mL
Serum PTH concentration 60 min later (PTH secretion [1]; 60 min): 17.9 ± 2.0 pg/mL
Serum PTH concentration 120 min later (PTH secretion [1]; 120 min): 14.8 ± 1.6 pg/mL
Effect of concomitant administration on suppression of ICTP increase by estrogen (bone resorption; Table 65, concomitant with estrogen): did not show changes in the ability to suppress estrogen
Blood ICTP concentration (bone resorption; day 13, Group D: Example 1-1 3 mg/kg oral and estradiol 10 μg/kg s.c. concomitant): 21.77 ± 3.34 ng/mL
Blood ICTP concentration (bone resorption; day 13, exclusive administration (Group B estradiol 10 μg/kg s.c.; Group C Example 1-1 3 mg/kg oral)): 26.10 ± 3.45 ng/mL
Change of blood PTH with time (PTH secretion [2]; Table 66, Example 1-1 and estrogen concomitant administration): a transitional increase was observed
Change of blood PTH with time (PTH secretion [2]; Table 66, exclusive administration): a transitional increase was observed
PTH (1–84) concentration 0.25 hr (PTH secretion [2]; [3]): 407.35 ± 134.53 pg/mL
PTH (1–84) concentration 0.25 hr (PTH secretion [2]; [4]): 371.21 ± 77.74 pg/mL
PTH (1–84) concentration 0.5 hr (PTH secretion [2]; [3]): 418.87 ± 154.78 pg/mL
PTH (1–84) concentration 0.5 hr (PTH secretion [2]; [4]): 370.78 ± 98.28 pg/mL
PTH (1–84) concentration 1 hr (PTH secretion [2]; [3]): 279.76 ± 117.98 pg/mL
PTH (1–84) concentration 1 hr (PTH secretion [2]; [4]): 177.39 ± 96.06 pg/mL
PTH (1–84) concentration 2 hr (PTH secretion [2]; [3]): 115.50 ± 74.98 pg/mL
PTH (1–84) concentration 2 hr (PTH secretion [2]; [4]): 117.51 ± 123.12 pg/mL
PTH (1–84) concentration 4 hr (PTH secretion [2]; [3]): 58.84 ± 16.75 pg/mL
PTH (1–84) concentration 4 hr (PTH secretion [2]; [4]): 56.50 ± 12.29 pg/mL
PTH (1–84) concentration 0 hr (PTH secretion [2]; Group D: Example 1-1 3 mg/kg oral and estradiol 10 μg/kg s.c. concomitant): 27.12 ± 4.58 pg/mL
PTH (1–84) concentration 0 hr (PTH secretion [2]; exclusive administration (Group B estradiol 10 μg/kg s.c.; Group C Example 1-1 3 mg/kg oral)): 31.19 ± 16.28 pg/mL
